PubChem BioAssay (NCI)
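These data come from cells grown in 96-well plates and exposed to compound for 48 hours at five concentrations. Here, GI50 denotes the concentration required for 50% inhibition of growth. Definition used: TGI = concentration required for complete inhibition of growth.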

Each compound was assayed on UACC-257 melanoma (assay: DTP human tumour cell line panel, 48 h).

`CC1=C(C(=O)Nc2ccccc2)C(c2ccc(N(C)C)cc2)C(C(=O)Nc2ccccc2)=C(C)N1` gave a TGI greater than 100 µM.

What follows are compounds tested on MOLT-4 leukemia (assay: DTP human tumour cell line panel, 48 h).

In order of rising GI50:
1. O=C1/C(=C/c2ccc(Cl)c(Cl)c2)CN(C(=O)CCN2CCC(=NO)CC2)C/C1=C\c1ccc(Cl)c(Cl)c1  0.458 µM
2. O=C(Nc1cccc(-n2cc(-c3ccncc3)c(-c3cc(O)cc(Cl)c3)n2)c1)c1ccc(N2CCOCC2)c(C(F)(F)F)c1  1.11 µM
3. O=C(/C=C/C12c3ccccc3C(c3ccccc31)C1C(=O)NC(=O)C12)c1ccccn1 (stereo not given)  2.11 µM
4. N#CC1c2ccccc2C=CN1C(=O)CCCl (stereo not given)  7.88 µM
5. O=C1NC(=N[C@@H](CO)c2ccccc2)S/C1=C\c1ccc2ncccc2c1  9.19 µM

Compared with `O=C(Nc1cccc(-n2cc(-c3ccncc3)c(-c3cc(O)cc(Cl)c3)n2)c1)c1ccc(N2CCOCC2)c(C(F)(F)F)c1`, `O=C1/C(=C/c2ccc(Cl)c(Cl)c2)CN(C(=O)CCN2CCC(=NO)CC2)C/C1=C\c1ccc(Cl)c(Cl)c1` is 1.9-fold lower in TGI: 4.38 µM for the first, 2.26 µM for the second.

Compared with `N#CC1c2ccccc2C=CN1C(=O)CCCl` (stereo not given), `O=C(/C=C/C12c3ccccc3C(c3ccccc31)C1C(=O)NC(=O)C12)c1ccccn1` (stereo not given) is 5.4-fold lower in TGI: 51.2 µM for the first, 9.55 µM for the second.

`O=C1NC(=N[C@@H](CO)c2ccccc2)S/C1=C\c1ccc2ncccc2c1` and `CC1=C(C(=O)Nc2ccccc2)C(c2ccc(N(C)C)cc2)C(C(=O)Nc2ccccc2)=C(C)N1` cannot be ordered by TGI: greater than 25 µM for the first, greater than 96.6 µM for the second.

These compounds were tested on K-562 leukemia (assay: DTP human tumour cell line panel, 48 h).

In order of falling GI50:
1. O=C1NC(=N[C@@H](CO)c2ccccc2)S/C1=C\c1ccc2ncccc2c1  9.04 µM
2. N#CC1c2ccccc2C=CN1C(=O)CCCl (stereo not given)  4.03 µM
3. O=C(/C=C/C12c3ccccc3C(c3ccccc31)C1C(=O)NC(=O)C12)c1ccccn1 (stereo not given)  1.37 µM
4. O=C(Nc1cccc(-n2cc(-c3ccncc3)c(-c3cc(O)cc(Cl)c3)n2)c1)c1ccc(N2CCOCC2)c(C(F)(F)F)c1  0.564 µM
5. O=C1/C(=C/c2ccc(Cl)c(Cl)c2)CN(C(=O)CCN2CCC(=NO)CC2)C/C1=C\c1ccc(Cl)c(Cl)c1  0.191 µM

First: O=C(Nc1cccc(-n2cc(-c3ccncc3)c(-c3cc(O)cc(Cl)c3)n2)c1)c1ccc(N2CCOCC2)c(C(F)(F)F)c1
Second: CC1=C(C(=O)Nc2ccccc2)C(c2ccc(N(C)C)cc2)C(C(=O)Nc2ccccc2)=C(C)N1
The TGI of the first is lower: 4.88 µM for the first, greater than 69.1 µM for the second.

First: N#CC1c2ccccc2C=CN1C(=O)CCCl (stereo not given)
Second: O=C(/C=C/C12c3ccccc3C(c3ccccc31)C1C(=O)NC(=O)C12)c1ccccn1 (stereo not given)
The TGI of the first is 3.3-fold higher: 60 µM for the first, 18.1 µM for the second.

Work on `O=C1NC(=N[C@@H](CO)c2ccccc2)S/C1=C\c1ccc2ncccc2c1` yielded a TGI greater than 25 µM.

The compounds below were run on SF-539 CNS (assay: DTP human tumour cell line panel, 48 h).

In order of rising GI50:
1. O=C1/C(=C/c2ccc(Cl)c(Cl)c2)CN(C(=O)CCN2CCC(=NO)CC2)C/C1=C\c1ccc(Cl)c(Cl)c1  0.753 µM
2. O=C(Nc1cccc(-n2cc(-c3ccncc3)c(-c3cc(O)cc(Cl)c3)n2)c1)c1ccc(N2CCOCC2)c(C(F)(F)F)c1  1.44 µM
3. O=C(/C=C/C12c3ccccc3C(c3ccccc31)C1C(=O)NC(=O)C12)c1ccccn1 (stereo not given)  2.04 µM
4. O=C1NC(=N[C@@H](CO)c2ccccc2)S/C1=C\c1ccc2ncccc2c1  5.86 µM
5. N#CC1c2ccccc2C=CN1C(=O)CCCl (stereo not given)  8.06 µM

Going from `O=C(Nc1cccc(-n2cc(-c3ccncc3)c(-c3cc(O)cc(Cl)c3)n2)c1)c1ccc(N2CCOCC2)c(C(F)(F)F)c1` to `O=C1/C(=C/c2ccc(Cl)c(Cl)c2)CN(C(=O)CCN2CCC(=NO)CC2)C/C1=C\c1ccc(Cl)c(Cl)c1`, the TGI falls from 4.47 µM to 1.97 µM (2.3-fold).

First: N#CC1c2ccccc2C=CN1C(=O)CCCl (stereo not given)
Second: O=C(/C=C/C12c3ccccc3C(c3ccccc31)C1C(=O)NC(=O)C12)c1ccccn1 (stereo not given)
The TGI of the first is 4.8-fold higher: 22.3 µM for the first, 4.65 µM for the second.

First: O=C1NC(=N[C@@H](CO)c2ccccc2)S/C1=C\c1ccc2ncccc2c1
Second: CC1=C(C(=O)Nc2ccccc2)C(c2ccc(N(C)C)cc2)C(C(=O)Nc2ccccc2)=C(C)N1
The TGI of the first is lower: 22 µM for the first, greater than 100 µM for the second.

The compounds below were run on MALME-3M melanoma (assay: DTP human tumour cell line panel, 48 h).

In order of rising GI50:
1. O=C1/C(=C/c2ccc(Cl)c(Cl)c2)CN(C(=O)CCN2CCC(=NO)CC2)C/C1=C\c1ccc(Cl)c(Cl)c1  1.32 µM
2. O=C(Nc1cccc(-n2cc(-c3ccncc3)c(-c3cc(O)cc(Cl)c3)n2)c1)c1ccc(N2CCOCC2)c(C(F)(F)F)c1  1.38 µM
3. N#CC1c2ccccc2C=CN1C(=O)CCCl (stereo not given)  2 µM
4. O=C(/C=C/C12c3ccccc3C(c3ccccc31)C1C(=O)NC(=O)C12)c1ccccn1 (stereo not given)  2.14 µM
5. O=C1NC(=N[C@@H](CO)c2ccccc2)S/C1=C\c1ccc2ncccc2c1  13.4 µM

First: O=C(Nc1cccc(-n2cc(-c3ccncc3)c(-c3cc(O)cc(Cl)c3)n2)c1)c1ccc(N2CCOCC2)c(C(F)(F)F)c1
Second: O=C1/C(=C/c2ccc(Cl)c(Cl)c2)CN(C(=O)CCN2CCC(=NO)CC2)C/C1=C\c1ccc(Cl)c(Cl)c1
The TGI of the first is 1.9-fold higher: 5.19 µM for the first, 2.78 µM for the second.

`N#CC1c2ccccc2C=CN1C(=O)CCCl` (stereo not given) and `O=C(/C=C/C12c3ccccc3C(c3ccccc31)C1C(=O)NC(=O)C12)c1ccccn1` (stereo not given) are within 1.5-fold of each other in TGI: 4.01 µM for the first, 5.05 µM for the second.

`O=C1NC(=N[C@@H](CO)c2ccccc2)S/C1=C\c1ccc2ncccc2c1` and `CC1=C(C(=O)Nc2ccccc2)C(c2ccc(N(C)C)cc2)C(C(=O)Nc2ccccc2)=C(C)N1` cannot be ordered by TGI: greater than 25 µM for the first, 39.6 µM for the second.

What follows are compounds tested on NCI-H522 lung (assay: DTP human tumour cell line panel, 48 h).

In order of rising GI50:
1. O=C1/C(=C/c2ccc(Cl)c(Cl)c2)CN(C(=O)CCN2CCC(=NO)CC2)C/C1=C\c1ccc(Cl)c(Cl)c1  0.369 µM
2. O=C(Nc1cccc(-n2cc(-c3ccncc3)c(-c3cc(O)cc(Cl)c3)n2)c1)c1ccc(N2CCOCC2)c(C(F)(F)F)c1  0.934 µM
3. N#CC1c2ccccc2C=CN1C(=O)CCCl (stereo not given)  1.52 µM
4. O=C(/C=C/C12c3ccccc3C(c3ccccc31)C1C(=O)NC(=O)C12)c1ccccn1 (stereo not given)  1.52 µM
5. O=C1NC(=N[C@@H](CO)c2ccccc2)S/C1=C\c1ccc2ncccc2c1  5.93 µM

Compared with `O=C(Nc1cccc(-n2cc(-c3ccncc3)c(-c3cc(O)cc(Cl)c3)n2)c1)c1ccc(N2CCOCC2)c(C(F)(F)F)c1`, `O=C1/C(=C/c2ccc(Cl)c(Cl)c2)CN(C(=O)CCN2CCC(=NO)CC2)C/C1=C\c1ccc(Cl)c(Cl)c1` is 7.6-fold lower in TGI: 12.1 µM for the first, 1.59 µM for the second.

`N#CC1c2ccccc2C=CN1C(=O)CCCl` (stereo not given) and `O=C(/C=C/C12c3ccccc3C(c3ccccc31)C1C(=O)NC(=O)C12)c1ccccn1` (stereo not given) are within 1.5-fold of each other in TGI: 2.92 µM for the first, 3.37 µM for the second.

`O=C1NC(=N[C@@H](CO)c2ccccc2)S/C1=C\c1ccc2ncccc2c1` and `CC1=C(C(=O)Nc2ccccc2)C(c2ccc(N(C)C)cc2)C(C(=O)Nc2ccccc2)=C(C)N1` cannot be ordered by TGI: greater than 20 µM for the first, 81.2 µM for the second.
